Test results reported in patent publication US9024069B2, “NONOate derivatives and uses thereof” (Ironwood Pharmaceuticals, priority 2012, dated 2015).

Columns and labels:
[1] = test system: rat aortic ring; assay: Thoracic aortic rings assay (vasorelaxation of phenylephrine-contracted rings); assay type: ex vivo tissue; conditions: rat thoracic aortic rings contracted with 100 ng/mL phenylephrine; cumulative dosing; FIG. 3
Method: Thoracic aortic rings were dissected from anesthetized (isoflurane) male Sprague-Dawley rats weighing 275-299 g. Tissues were immediately transferred to ice-cold Krebs-Henseleit solution, which had been aerated with 95% O2 and 5% CO2 for 30 minutes. Following removal of connective tissue, aortic sections were cut into 4 rings (˜2 mm each) and suspended on 2 L-shaped hooks, with one hook fixed at the bottom of the tissue bath (Schuler Organ Bath, Harvard Apparatus) and the other connected to a force transducer (F30 Force Transducer, Harvard Apparatus). Baths contained Krebs Henseleit solution (10 mL) heated to 37° C. and aerated with 95% O2 and 5% CO2. Rings were brought to an initial tension of 0.3-0.5 g and gradually raised to a resting tension of 1.0 g over 60 minutes. Rings were rinsed with Krebs Henseleit solution (heated to 37° C. and aerated with 95% 02 and 5% CO2) at 15 minute intervals until a stable baseline was obtained. Rings were considered to be stable after a resting tension of 1.0 g was maintained (for approximately 10 minutes) without need for adjustment. Rings were then contracted with 100 ng/mL phenylephrine by adding 100 uL of a 10 μg/mL phenylephrine stock solution. Tissues achieving a stable contraction were then treated in a cumulative, dose dependent manner with test compounds prepared in dimethylsulfoxide (DMSO). In some cases, tissues were rinsed three times over a 5 minute period with Krebs-Heinseleit's solution (heated to 37° C. and aerated with 95% O2 and 5% CO2), allowed to stabilize at baseline, and then used for characterization of other test articles or DMSO effects. All data were collected using the HSE-ACAD software provided by Harvard Apparatus. Percent relaxation effects were calculated in Microsoft Excel using the recorded tension value of 100 ng/mL phenylephrine treatment as 0% inhibition and treatment with 100 μM 3-isobutyl-1-methylxanthine as 100% inhibition. EC50 values were calculated from concentration-response curves generated with GraphPad Prism Software. […]

[2] = test system: normotensive rats; assay: Rat normotensive blood pressure model; assay type: in vivo; conditions: normotensive conscious SD rats, single oral dose 30 mg/kg, 6 hours monitoring; FIG. 6
Source text: 36 male SD rats were allowed to acclimate for at least 3 days. After conditioning the rats were arterially cannulated and assigned to 4 treatment groups, with the goal of achieving n=6/group.
After the acclimation period, the rats were briefly anesthetized with inhaled isoflurane and implanted a small bore femoral artery cannula to permit CV monitoring under conscious unrestrained conditions as conducted in prior studies. 18 rats were cannulated per day on 2 consecutive days and allowed 2 days of post-operative recovery prior to CV testing. 12 rats per day were monitored for each of 2 consecutive daily test sessions.
On the morning of the test sessions, the rats were placed in individual bell jars and their femoral artery cannulas were attached to pressure transducers. CV monitoring consisted of continuously recording mean arterial pressure (MAP) and spot checking heart rate (HR; every 5 to 7 minutes) prior to and for 6 hours after a single oral treatment as in previous studies.
Also on the morning of testing, 4 oral treatments in 500 μl of 100% PEG 400 were formulated. The rats were allowed about 1 hour of equilibration prior to dosing. Once suitably equilibrated, each rat was dosed with an oral vehicle or a drug, delivered by standard gavage. The CV recording was continued over the 6-hour post-treatment interval, occasional small flushes of heparinized saline (˜0.1 mL; 20 units/mL) were administered into their arterial catheters in order to maintain recording fidelity.
At the conclusion of the 6-hour CV monitoring interval, a terminal ˜0.6 mL arterial blood sample was taken and the serum or plasma was processed.

[3] = Nitric oxide (NOx) level after oral dosing in male rats, Nitrate/Nitrite Colorimetric Assay; assay type: in vivo, rat; conditions: male SD rats, oral gavage; Fenofibrate 24.8 mg/kg, compounds 6, 7, 8 at 32, 34, 33.8 mg/kg; FIG. 2
Method: 15 male SD (Sprague Dawley) rats were allowed to acclimate for at least 3 days. Fenofibrate, compounds 6, 7, and 8 were administered via oral gavage at molar equivalent doses of 24.8, 32, 34, 33.8 mg/kg, respectively. Animals were fasted overnight and had their food replaced 4 hours after dosing. Compounds were formulated in 300 μL of 100% PEG400. Animals were euthanized under CO2 at the 24 hr time point. Plasma samples were taken for analytical determination of fenofibric acid from compounds in vacutainers containing sodium fluoride. Serum samples were taken for nitric oxide level determination in BD serum collection tubes.
Fenofibric acid was extracted from the plasma using an acetonitrile protein precipitation method. Samples were run on a Waters Aquity TQD LC-MS/MS and analyzed using the MassLynx software. Nitric Oxide levels were measured in serum using a Nitrate/Nitrite Colorimetric Assay Kit from Caymen Chemicals.

[4] = test system: L-NAME hypertensive rats; assay: Rat L-NAME induced hypertension blood pressure model; assay type: in vivo; conditions: oral gavage, 6 hours monitoring, compound 8 at 10, 30, 60 mg/kg, Fenofibrate 49.6 mg/kg, FIGS. 7 and 8
Method: L-NAME induced hypertension model was carried out at Pharmoptima. Based on the rats' projected average daily water intake, the NO synthase inhibitor L-NAME, L-NG-nitroarginine methyl ester, which induces hypertension, were dissolved in their drinking water so that the rats self-administered tested compounds for 2 weeks prior to study at the targeted daily L-NAME dosage. The rats' L-NAME/water solution was reformulated every other day to insure potency.
After 2 weeks of oral L-NAME preconditioning, the rats were anesthetized with inhaled isoflurane (3-4% in oxygen) and implanted a small bore femoral artery catheter to permit cardiovascular (CV) monitoring under conscious unrestrained conditions. A total of 36 rats (18 rats/day on two consecutive days) were prepared. The catheters were sealed with sodium heparin to maintain patency.
Allow 2 days of post-operative recovery prior to study, allowing full access to food and water (containing dissolved L-NAME) water.
On the study treatment day, […] (n=6×5 treatments) were set up in bell jars under routine non-fasted conditions. Start recording mean arterial pressure (MAP) and heart rate (HR) from this first set of cannulated rats as per previous studies conducted by PharmOptima. Once stable, the rats were dosed by oral gavage. CV data were recorded from the rats over the ensuing 6 hours. 3 arterial blood samples were taken per rat and the harvested plasma samples were frozen.

[5] = test system: high fat, high cholesterol diet rats; assay: Rat high fat, high cholesterol diet model (VAP lipid analysis); assay type: in vivo; conditions: HFHC diet rats, once daily p.o. for seven days, compound 8 at 3, 10, 30 mg/kg, Fenofibrate at 2.2, 7.3, 22 mg/kg; for very low-density lipoprotein (VLDL) cholesterol: FIG. 4; for HDL: FIG. 5
Method: Compounds were tested for effects on cholesterol and lipid profiles in a rat high fat diet model for example as described in Ghibaudi et al. (2002) Obes Res 10:956-63, Ricci and Levin (2003) Am J Physiol Regul Integr Comp Physiol 285:R610-8, and Gao et al. (2002) 936:87-90. Alternatively, animals were fed either a normal diet or a chow supplemented with added fat and/or cholesterol as described in Krause et al (1994) Pharm Res VoI 29, No. 4, Nishina (1993) J of Lipid Res vol 43. and Gajda et al. (2007) Animal Lab News. Based on the specific chows used in these reports, animals were fed a diet consisting of 40% fat, 1% cholesterol, and 0.5% cholic acid (catalog #D01061201, Research Diets, New Brunswick, N.J. 08901).
After at least a week on this diet, animals (6-8/group) are dosed once daily perorally with 500 uL test compounds in PEG 400. Groups are dosed for at least one week before whole blood samples are taken for analysis. Blood serum is analyzed using Vertical Auto Profile (VAP; Atherotech, Inc., Birmingham, Ala.) analysis similar to as described in Kulkarni (2006) Clin Lab Med 26:787-802.
Fenofibrate (Sigma—Cat# F6020-5G, Lot#017K1401) was tested in this assay at 2.2, 7.3 and 22 mg/kg which were equimolar equivalents (for the fenofibric acid moiety) of Compound 8 dosed at 3, 10 and 30 mg/kg. In these experiments animals (n=6 per group) were fed a high fat high cholesterol chow (HFHC; 40% fat, 1% cholesterol, 0.5% cholic acid) diet for one week before test compound administration. Animals received either vehicle only (PEG 400) or test compound (compound 8 at 3, 10 or 30 mg/kg or fenofibrate at 2.2, 7.3 or 22 mg/kg) for seven days before whole blood samples were taken for analysis.

Row | SMILES | vasorelaxant properties [1] | blood pressure [2] | nitric oxide levels in the plasma upon dosing [3] | blood pressure [4] | very low-density lipoprotein (VLDL) cholesterol [5] | HDL [5]
1 | CN(CCO)/[N+]([O-])=N/OCOC(=O)C(C)(C)Oc1ccc(C(=O)c2ccc(Cl)cc2)cc1 [Compound 6, (Z)-1-((2-(4-(4-chlorobenzoyl)phenoxy)-2-methylpropanoyloxy)methoxy)-3-(2-hydroxyethyl)-3-methyltriaz-1-ene 2-oxide] | potent vasorelaxant properties in the nM range | lowering blood pressure | robust increase in nitric oxide levels | – | – | –
2 | CN(CCCCO)/[N+]([O-])=N/OCOC(=O)C(C)(C)Oc1ccc(C(=O)c2ccc(Cl)cc2)cc1 [Compound 7, (Z)-1-((2-(4-(4-chlorobenzoyl)phenoxy)-2-methylpropanoyloxy)methoxy)-3-(4-hydroxybutyl)-3-methyltriaz-1-ene 2-oxide] | – | lowering blood pressure | robust increase in nitric oxide levels | – | – | –
3 | CC(C)(Oc1ccc(C(=O)c2ccc(Cl)cc2)cc1)C(=O)OCO/N=[N+](\[O-])N1CCC[C@H]1CO [Compound 8, (S,Z)-2-((2-(4-(4-chlorobenzoyl)phenoxy)-2-methylpropanoyloxy)methoxy)-1-(2-(hydroxymethyl)pyrrolidin-1-yl)diazene oxide] | potent vasorelaxant properties in the nM range | lowering blood pressure | robust increase in nitric oxide levels | lowered blood pressure in an L-NAME model of hypertension in a dose responsive manner | decreases in very low-density lipoprotein (VLDL) cholesterol | dose related increases in HDL
4 | CC(C)OC(=O)C(C)(C)Oc1ccc(C(=O)c2ccc(Cl)cc2)cc1 [Fenofibrate, 2-[4-(4-chlorobenzoyl)phenoxy]-2-methyl-propanoic acid, 1-methylethyl ester, reference compound] | – | – | no increase in nitric oxide | did not lower blood pressure | decreases in VLDL | increases in HDL
5 | O=[N+]([O-])O[C@H]1CO[C@H]2[C@@H]1OC[C@H]2O[N+](=O)[O-] [ISDN, isosorbide dinitrate, reference compound] | active in this assay as a vasorelaxant in the micromolar range | – | – | moderate blood pressure lowering effect | – | –
